Data: patent US11046699B2, “Pyrazolo-pyrimidin-amino-cycloalkyl compounds and their therapeutic uses” (RAPT THERAPEUTICS, INC., priority 2018, dated 2021)

biological target: GCN2 (Homo sapiens, UniProt Q9P2K8); assay: GCN2 enzymatic endpoint assay: phosphorylation of GFP-eIF2α measured by TR-FRET (Lanthascreen); assay type: biochemical; settings: GCN2 biochemical IC50; 4 nM GCN2, 2 μM ATP, 80 nM GFP-eIF2α, 90 min RT; read-out: GCN2 activity
Procedure, shortened: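 Endpoint kinase reaction with 2 μM ATP and 80 nM GFP-labelled eIF2α substrate, run at room temperature for 90 min, then stopped with EDTA. Phospho-substrate detected by terbium-antibody TR-FRET, activity taken as the 520/495 nm emission ratio.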

GCN2, sequence (Q9P2K8 whole entry): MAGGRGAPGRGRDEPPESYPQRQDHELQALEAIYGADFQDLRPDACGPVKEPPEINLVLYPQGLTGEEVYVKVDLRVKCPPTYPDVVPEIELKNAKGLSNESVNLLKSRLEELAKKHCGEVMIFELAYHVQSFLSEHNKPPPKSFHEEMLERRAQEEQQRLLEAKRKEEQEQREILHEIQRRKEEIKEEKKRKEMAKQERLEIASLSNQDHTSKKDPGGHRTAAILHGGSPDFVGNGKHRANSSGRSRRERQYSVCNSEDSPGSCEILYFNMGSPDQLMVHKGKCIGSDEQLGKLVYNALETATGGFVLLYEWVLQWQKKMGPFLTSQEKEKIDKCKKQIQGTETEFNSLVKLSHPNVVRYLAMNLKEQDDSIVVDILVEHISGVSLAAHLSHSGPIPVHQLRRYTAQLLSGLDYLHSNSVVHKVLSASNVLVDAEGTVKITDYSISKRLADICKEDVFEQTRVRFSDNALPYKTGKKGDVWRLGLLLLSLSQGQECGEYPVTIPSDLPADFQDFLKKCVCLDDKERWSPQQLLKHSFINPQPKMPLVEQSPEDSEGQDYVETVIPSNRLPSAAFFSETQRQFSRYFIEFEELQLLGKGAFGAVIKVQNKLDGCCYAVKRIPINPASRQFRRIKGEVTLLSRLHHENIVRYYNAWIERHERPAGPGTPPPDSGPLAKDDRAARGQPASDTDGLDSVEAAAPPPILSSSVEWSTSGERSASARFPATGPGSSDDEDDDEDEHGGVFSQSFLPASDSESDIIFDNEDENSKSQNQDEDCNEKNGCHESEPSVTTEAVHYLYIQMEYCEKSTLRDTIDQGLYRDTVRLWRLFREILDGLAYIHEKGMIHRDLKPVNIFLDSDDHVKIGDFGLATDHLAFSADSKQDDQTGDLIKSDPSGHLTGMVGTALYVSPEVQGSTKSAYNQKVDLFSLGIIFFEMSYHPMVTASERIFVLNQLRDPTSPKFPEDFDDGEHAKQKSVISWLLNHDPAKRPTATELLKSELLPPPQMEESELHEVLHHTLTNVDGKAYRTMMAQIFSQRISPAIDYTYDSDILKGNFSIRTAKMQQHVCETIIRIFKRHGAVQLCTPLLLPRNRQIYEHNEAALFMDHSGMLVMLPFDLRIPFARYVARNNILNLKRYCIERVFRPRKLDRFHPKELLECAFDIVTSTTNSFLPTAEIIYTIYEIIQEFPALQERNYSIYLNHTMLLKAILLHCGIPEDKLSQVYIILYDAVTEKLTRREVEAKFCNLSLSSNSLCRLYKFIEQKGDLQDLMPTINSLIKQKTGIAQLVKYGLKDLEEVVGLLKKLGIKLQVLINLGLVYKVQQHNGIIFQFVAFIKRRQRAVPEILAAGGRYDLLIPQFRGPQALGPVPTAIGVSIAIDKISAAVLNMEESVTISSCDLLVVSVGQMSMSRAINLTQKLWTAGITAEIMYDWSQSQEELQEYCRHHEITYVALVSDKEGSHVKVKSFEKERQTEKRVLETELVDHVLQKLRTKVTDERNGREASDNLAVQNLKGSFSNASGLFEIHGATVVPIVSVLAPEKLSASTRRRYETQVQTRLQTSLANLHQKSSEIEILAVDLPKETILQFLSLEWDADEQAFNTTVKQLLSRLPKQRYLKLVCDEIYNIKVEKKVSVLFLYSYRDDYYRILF

Q: How did the IC50 turn out when `Brc1nn(-c2ccc3ncccc3c2)c2nc(N[C@@H]3CCC(N4CCOCC4)C3)ncc12` (mixture of isomers) [Example 7, 3-bromo-N-(3-morpholinocyclopentyl)-1-(quinolin-6-yl)-1H-pyrazolo[3,4-d]pyrimidin-6-amine] was run?
A: 25 to 200 nM

Q: With `CNC(=O)[C@]1(C)CC[C@@H](Nc2ncc3c(Br)nn(-c4ccc5nc(N6CCC6)ncc5c4)c3n2)C1` [Example 73, (1R,3R)-3-((1-(2-(azetidin-1-yl)quinazolin-6-yl)-3-bromo-1H-pyrazolo[3,4-d]pyrimidin-6-yl)amino)-N,1-dimethylcyclopentane-1-carboxamide] as the compound, how does the IC50 read?
A: 25 to 200 nM

Q: Which IC50 does the source give for `CNC(=O)[C@]1(CC(F)F)CC[C@@H](Nc2ncc3c(Br)nn(-c4ccc(-c5nnc(C)s5)c(CCC#N)c4)c3n2)C1` [Example 53, (1R,3R)-3-((3-bromo-1-(3-(2-cyanoethyl)-4-(5-methyl-1,3,4-thiadiazol-2-yl)phenyl)-1H-pyrazolo[3,4-d]pyrimidin-6-yl)amino)-1-(2,2-difluoroethyl)-N-methylcyclopentane-1-carboxamide; 2,2,2-trifluoroacetic acid] here?
A: 25 to 200 nM

Q: How did the IC50 turn out when `Cc1nnc(-c2ccc(-n3nc(Br)c4cnc(N[C@@H]5CC[C@@](C)(O)C5)nc43)cc2CCC#N)s1` [Example 76, 3-(5-(3-bromo-6-(((1R,3R)-3-hydroxy-3-methylcyclopentyl)amino)-1H-pyrazolo[3,4-d]pyrimidin-1-yl)-2-(5-methyl-1,3,4-thiadiazol-2-yl)phenyl)propanenitrile] was run?
A: 25 to 200 nM

Q: `COCCNC(=O)[C@@H]1CC[C@@H](Nc2ncc3c(Br)nn(-c4ccc5ncccc5c4)c3n2)C1` [Example 1, (1R,3R)-3-((3-bromo-1-(quinolin-6-yl)-1H-pyrazolo[3,4-d]pyrimidin-6-yl)amino)-N-(2-methoxyethyl)cyclopentane-1-carboxamide] was tested. Which IC50 did it give?
A: < 25 nM

same assay, conditions: tested as described in Example 77; compound and/or hydrochloride, dihydrochloride or trifluoroacetic acid salt; read-out: IC 50 Activity

Q: With `N#Cc1cc(-n2nc(Br)c3cnc(N[C@@H]4CC[C@@H](C(=O)NC5CCS(=O)(=O)CC5)C4)nc32)cc2cccnc12` [(1R,3R)-3-((3-bromo-1-(8-cyanoquinolin-6-yl)-1H-pyrazolo[3,4-d]pyrimidin-6-yl)amino)-N-(1,1-dioxidotetrahydro-2H-thiopyran-4-yl)cyclopentane-1-carboxamide] as the compound, how does the IC50 read?
A: 25 to 200 nM

Q: With `CNC(=O)[C@]1(C)CC[C@@H](Nc2ncc3c(Br)nn(-c4cc(NC(=O)CN)c5ncccc5c4)c3n2)C1` [(1R,3R)-3-[[1-[8-[(2-aminoacetyl)amino]-6-quinolyl]-3-bromo-pyrazolo[3,4-d]pyrimidin-6-yl]amino]-N,1-dimethyl-cyclopentanecarboxamide] as the compound, how does the IC50 read?
A: 25 to 200 nM

Q: For `CNC(=O)[C@]1(C)CC[C@@H](Nc2ncc3c(Br)nn(-c4ccc(OCCO)c(Cl)c4)c3n2)C1` [(1R,3R)-3-[[3-bromo-1-[3-chloro-4-(2-hydroxyethoxy)phenyl]pyrazolo [3,4-d]pyrimidin-6-yl]amino]-N,1-dimethyl-cyclopentanecarboxamide], which IC50 is on record?
A: 25 to 200 nM

Q: `CNC(=O)[C@]1(C)CC[C@@H](Nc2ncc3c(Br)nn(-c4ccc5ncc(NC(=O)CCN)cc5c4)c3n2)C1` [(1R,3R)-3-[[1-[3-(3-aminopropanoylamino)-6-quinolyl]-3-bromo-pyrazolo[3,4-d]pyrimidin-6-yl]amino]-N,1-dimethyl-cyclopentanecarboxamide] was tested. Which IC50 did it give?
A: < 25 nM

Q: Which IC50 does the source give for `CNC(=O)[C@]1(C)CC[C@@H](Nc2ncc3c(Br)nn(-c4cc(CNCC(F)F)c5ncccc5c4)c3n2)C1` [(1R,3R)-3-[[3-bromo-1-[8-[(2,2-difluoroethylamino)methyl]-6-quinolyl]pyrazolo[3,4-d]pyrimidin-6-yl]amino]-N,1-dimethyl-cyclopentanecarboxamide] here?
A: 25 to 200 nM

Q: For `COCCNC(=O)[C@@H]1CC[C@@H](Nc2ncc3c(Br)nn(-c4cc(C(F)F)c5ncccc5c4)c3n2)C1` [(1R,3R)-3-((3-bromo-1-(8-(difluoromethyl)quinolin-6-yl)-1H-pyrazolo[3,4-d]pyrimidin-6-yl)amino)-N-(2-methoxyethyl)cyclopentane-1-carboxamide], which IC50 is on record?
A: 25 to 200 nM

Q: For `CC1(C(=O)N2CCOCC2)CC[C@@H](Nc2ncc3c(Br)nn(-c4cc(F)c5ncccc5c4)c3n2)C1` (stereo partly drawn) [[(3R)-3-[[3-bromo-1-(8-fluoro-6-quinolyl)pyrazolo[3,4-d]pyrimidin-6-yl]amino]-1-methyl-cyclopentyl]-morpholino-methanone], which IC50 is on record?
A: < 25 nM

Q: `CNC(=O)[C@]1(CCC(F)(F)F)CC[C@@H](Nc2ncc3c(Br)nn(-c4cc(F)c5ncccc5c4)c3n2)C1` [(1S,3R)-3-[[3-bromo-1-(8-fluoro-6-quinolyl)pyrazolo[3,4-d]pyrimidin-6-yl]amino]-N-methyl-1-(3,3,3-trifluoropropyl)cyclopentane-carboxamide] was tested. Which IC50 did it give?
A: 25 to 200 nM

Q: With `CNC(=O)[C@]1(C)CC[C@@H](Nc2ncc3c(Br)nn(-c4ccc(-c5ncco5)c(NC(=O)C5CNC5)c4)c3n2)C1` [N-[5-[3-bromo-6-[[(1R,3R)-3-methyl-3-(methylcarbamoyl)cyclopentyl]amino]pyrazolo[3,4-d]pyrimidin-1-yl]-2-oxazol-2-yl-phenyl]azetidine-3-carboxamide] as the compound, how does the IC50 read?
A: < 25 nM

Q: `O=C([C@@H]1CC[C@@H](Nc2ncc3c(Br)nn(-c4ccc5ncccc5c4)c3n2)C1)N1CCOCC1` [((1R,3R)-3-((3-bromo-1-(quinolin-6-yl)-1H-pyrazolo[3,4-d]pyrimidin-6-yl)amino)cyclo-pentyl)(morpholino)methanone] was tested. Which IC50 did it give?
A: 25 to 200 nM

Q: With `CNC(=O)[C@]1(C)CC[C@@H](Nc2ncc3c(Br)nn(-c4cc(CCCN)c5ncccc5c4)c3n2)C1` [(1R,3R)-3-[[1-[8-(3-aminopropyl)-6-quinolyl]-3-bromo-pyrazolo[3,4-d]pyrimidin-6-yl]amino]-N,1-dimethyl-cyclopentanecarboxamide] as the compound, how does the IC50 read?
A: 25 to 200 nM

Q: `C[C@@]1(O)CC[C@@H](Nc2ncc3c(Br)nn(-c4cc(CCN)c5ncccc5c4)c3n2)C1` was tested. Which IC50 did it give?
A: < 25 nM

Q: For `CNC(=O)[C@]1(C)CC[C@@H](Nc2ncc3c(Br)nn(-c4ccc(-c5nnc(CC(C)O)o5)cc4)c3n2)C1` (stereo partly drawn) [(1R,3R)-3-[[3-bromo-1-[4-[5-(2-hydroxy-propyl)-1,3,4-oxadiazol-2-yl]phenyl]pyrazolo [3,4-d]pyrimidin-6-yl]amino]-N,1-dimethyl-cyclopentanecarboxamide], which IC50 is on record?
A: 25 to 200 nM

Q: Which IC50 does the source give for `CNC(=O)[C@]1(C)CC[C@@H](Nc2ncc3c(Br)nn(-c4ccc(-c5nnc(C)o5)c(F)c4)c3n2)C1` [(1R,3R)-3-[[3-bromo-1-[3-fluoro-4-(5-methyl-1,3,4-oxadiazol-2-yl)phenyl]pyrazolo[3,4-d]pyrimidin-6-yl]amino]-N,1-dimethyl-cyclopentanecarboxamide] here?
A: 25 to 200 nM

Q: How did the IC50 turn out when `CNC(=O)[C@]1(C)CC[C@@H](Nc2ncc3c(Br)nn(-c4ccc(-c5nnc(C)s5)c(CCS(C)(=O)=O)c4)c3n2)C1` [(1R,3R)-3-[[3-bromo-1-[3-(2-methyl-sulfonylethyl)-4-(5-methyl-1,3,4-thiadiazol-2-yl)phenyl]pyrazolo[3,4-d]pyrimidin-6-yl]amino]-N,1-dimethyl-cyclopentanecarboxamide] was run?
A: 25 to 200 nM

Q: How did the IC50 turn out when `CNC(=O)[C@]1(O)CC[C@@H](Nc2ncc3c(Br)nn(-c4cc(F)c5ncccc5c4)c3n2)C1` [(1S,3R)-3-[[3-bromo-1-(8-fluoro-6-quinolyl)pyrazolo[3,4-d]pyrimidin-6-yl]amino]-1-hydroxy-N-methyl-cyclopentanecarboxamide] was run?
A: 25 to 200 nM

Q: For `CNC(=O)[C@]1(C)CC[C@@H](Nc2ncc3c(Br)nn(-c4cc(CC(C)O)c5ncccc5c4)c3n2)C1` (stereo partly drawn) [(1R,3R)-3-[[3-bromo-1-[8-(2-hydroxy-propyl)-6-quinolyl]pyrazolo[3,4-d]pyrimidin-6-yl]amino]-N,1-dimethyl-cyclopentanecarboxamide], which IC50 is on record?
A: < 25 nM

Q: With `CNC(=O)[C@]1(C)CC[C@@H](Nc2ncc3c(Br)nn(-c4ccc(-c5nnc(C)s5)c(CC(C)O)c4)c3n2)C1` (stereo partly drawn) [(1R,3R)-3-[[3-bromo-1-[3-(2-hydroxypropyl)-4-(5-methyl-1,3,4-thiadiazol-2-yl)phenyl]pyrazolo[3,4-d]pyrimidin-6-yl]amino]-N,1-dimethyl-cyclopentanecarboxamide] as the compound, how does the IC50 read?
A: 25 to 200 nM

Q: How did the IC50 turn out when `CNC(=O)[C@]1(C)CC[C@@H](Nc2ncc3c(Br)nn(-c4cc(CC#N)c5nccnc5c4)c3n2)C1` [(1R,3R)-3-[[3-bromo-1-[8-(cyanomethyl)quinoxalin-6-yl]pyrazolo[3,4-d]pyrimidin-6-yl]amino]-N,1-dimethyl-cyclopentane-carboxamide] was run?
A: 25 to 200 nM

Q: Which IC50 does the source give for `CNC(=O)[C@]1(CC(F)F)CC[C@@H](Nc2ncc3c(Br)nn(-c4cc(CC(C)(C)O)c5ncccc5c4)c3n2)C1` [(1R,3R)-3-[[3-bromo-1-[8-(2-hydroxy-2-methyl-propyl)-6-quinolyl]pyrazolo[3,4-d]pyrimidin-6-yl]amino]-1-(2,2-difluoroethyl)-N-methyl-cyclopentanecarboxamide] here?
A: 25 to 200 nM

Q: `CNC(=O)C1(C(C)C#N)CC[C@@H](Nc2ncc3c(Br)nn(-c4ccc(-c5nnc(C)s5)c(CCC#N)c4)c3n2)C1` (stereo partly drawn) was tested. Which IC50 did it give?
A: 25 to 200 nM

Q: With `O=C(N[C@H]1CC[C@](O)(C(F)(F)F)CC1)[C@@H]1CC[C@@H](Nc2ncc3c(Br)nn(-c4ccc5ncccc5c4)c3n2)C1` as the compound, how does the IC50 read?
A: 500 to 1000 nM

Q: Which IC50 does the source give for `CC1(C(=O)NC2(C#N)CC2)CC[C@@H](Nc2ncc3c(Br)nn(-c4cc(F)c5ncccc5c4)c3n2)C1` (stereo partly drawn) [(3R)-3-[[3-bromo-1-(8-fluoro-6-quinolyl)pyrazolo[3,4-d]pyrimidin-6-yl]amino]-N-(1-cyanocyclopropyl)-1-methyl-cyclopentane-carboxamide] here?
A: < 25 nM

Q: With `CNC(=O)[C@]1(C)CC[C@@H](Nc2ncc3c(Br)nn(-c4cc(F)c5ncc(C(C)(C)N)cc5c4)c3n2)C1` [(1R,3R)-3-[[1-[3-(1-amino-1-methyl-ethyl)-8-fluoro-6-quinolyl]-3-bromo-pyrazolo [3,4-d]pyrimidin-6-yl]amino]-N,1-dimethyl-cyclopentanecarboxamide] as the compound, how does the IC50 read?
A: 25 to 200 nM

Q: `CN(C(=O)[C@]1(C)CC[C@@H](Nc2ncc3c(Br)nn(-c4cc(F)c5ncccc5c4)c3n2)C1)C(C)(C)CO` [(1R,3R)-3-[[3-bromo-1-(8-fluoro-6-quinolyl)pyrazolo[3,4-d]pyrimidin-6-yl]amino]-N-(2-hydroxy-1,1-dimethyl-ethyl)-N,1-dimethyl-cyclopentanecarboxamide] was tested. Which IC50 did it give?
A: < 25 nM
